Experimental data reported in patent publication US20110009268A1, “IPBC-CONTAINING COACERVATES” (priority 2006, published 2011).

Test system: mold fungi
Assay: Coatings test: mold resistance of emulsion paint (formula A)
Experimental: The substance under test was incorporated into the test paint, at the stated concentration, using a dissolver.
The procedure for testing the emulsion paints for mold resistance was as follows:
The coating material under test was applied to both sides of a suitable substrate. In order to obtain realistic results, one portion of the test specimens was leached with running water (24 h, 20° C.) prior to the test for mold resistance; a further portion was treated with a warm stream of fresh air (7 days, 40° C.).
The samples thus prepared were then placed on an agar nutrient medium, and both samples and nutrient medium were contaminated with fungal spores. Inspection took place after 2-3 weeks' storage (29±1° C., 80-90% relative humidity).
Contamination was carried out using spores of the following mold fungi which are known to destroy coating materials or which are frequently encountered on coatings:
Alternaria tennis Aspergillus flavus Aspergillus niger Aspergillus ustus Cindosporum herbarum Paecilomyces variotii Penicillum citrium Aureobasidium pullulans Stachybotrys chartarum

CCCCNC(=O)OCC#CI [pure IPBC, 3-iodo-2-propynyl butylcarbamate]
mold resistance of coating (0.08% based on solids content of the emulsion paint, without leaching and wind tunnel exposure): mold-resistant | activity of coating against mold (0.16% based on solids content of the emulsion paint, after leaching and wind tunnel exposure): active
